Measured values as given in ChEMBL document CHEMBL1201862, “PubChem BioAssay data set” (2004).
The source made the active and inactive calls.

Columns and labels:
[1] = HEp-2 cell cytotoxicity, dose response, cytotoxicity control for RSV inhibitor project, HTS (AID 2410); type: functional; conditions: human respiratory syncytial virus
Cytochrome P450 2D6 = Cytochrome P450 2D6 (Homo sapiens, UniProt P10635);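 also: CYP2D6 member of a cytochrome P450 panel assay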
Cytochrome P450 2C19 = Cytochrome P450 2C19 (Homo sapiens, UniProt P33261); assay: Cytochrome panel assay with activity outcomes. Panel member name: p450-cyp2c19 Compounds with AC50 equal or less than 10 uM are considered active; type: functional; conditions: read-out: AC50
Streptokinase A = target: T1, Streptokinase A (Streptococcus pyogenes serotype M1, UniProt P10520); assay: S. pyogenes streptokinase expression inhibitors, potency, dose response, plasminogen activation absorbance, OD405 (AID 1914); type: functional, Streptococcus pyogenes M1 GAS;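 also: secreted streptokinase activity via plasminogen activation per viability signal from cell pellet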
T1 sequence (P10520 whole entry): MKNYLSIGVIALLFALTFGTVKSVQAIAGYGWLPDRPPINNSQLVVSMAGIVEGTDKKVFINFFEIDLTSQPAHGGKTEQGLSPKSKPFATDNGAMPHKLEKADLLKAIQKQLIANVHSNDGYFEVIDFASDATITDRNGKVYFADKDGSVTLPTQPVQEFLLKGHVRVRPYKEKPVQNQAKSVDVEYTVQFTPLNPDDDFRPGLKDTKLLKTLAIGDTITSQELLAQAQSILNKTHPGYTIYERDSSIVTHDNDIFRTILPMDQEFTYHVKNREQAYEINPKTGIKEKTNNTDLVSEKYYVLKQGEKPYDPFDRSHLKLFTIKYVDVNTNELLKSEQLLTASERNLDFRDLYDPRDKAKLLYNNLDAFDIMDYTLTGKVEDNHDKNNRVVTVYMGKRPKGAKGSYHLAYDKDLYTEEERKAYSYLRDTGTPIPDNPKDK

Streptococcus = assay: Group A Streptococcus viability loss, dose response, counter-screen for streptokinase expression inhibitor project, luminescence, BacTiterGlo (AID 1915); type: functional, organism-based;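 also: potency for reduction of bacterial viability or growth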
[2] = tested on: Streptococcus sp. 'group A'; assay: growth inhibition of control SK(-) GAS strain, dose response, counter-screen for streptokinase expression inhibitor project, luminescence, kanamycin, BacTiterGlo, confirmation (AID 1900); type: functional, organism-based
Cytochrome P450 1A2 = target: T2, Cytochrome P450 1A2 (Homo sapiens, UniProt P05177);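 also: PubChem cytochrome P450 panel assay, CYP1A2 panel member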
T2 sequence (P05177 whole entry): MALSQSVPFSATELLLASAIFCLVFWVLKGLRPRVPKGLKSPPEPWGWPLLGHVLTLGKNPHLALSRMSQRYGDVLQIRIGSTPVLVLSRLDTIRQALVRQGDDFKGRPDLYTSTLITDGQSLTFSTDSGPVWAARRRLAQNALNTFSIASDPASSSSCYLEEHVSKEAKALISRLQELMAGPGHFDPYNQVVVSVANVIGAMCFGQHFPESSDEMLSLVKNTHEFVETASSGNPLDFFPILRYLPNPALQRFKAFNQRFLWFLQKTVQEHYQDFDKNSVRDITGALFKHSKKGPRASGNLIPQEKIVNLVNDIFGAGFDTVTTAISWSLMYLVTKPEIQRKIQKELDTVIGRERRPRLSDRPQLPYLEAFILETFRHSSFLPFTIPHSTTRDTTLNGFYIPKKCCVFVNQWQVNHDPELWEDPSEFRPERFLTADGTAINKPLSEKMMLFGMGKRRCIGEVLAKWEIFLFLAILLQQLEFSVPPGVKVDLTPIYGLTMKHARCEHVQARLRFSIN

[3] = Luminescence Cell-Based Dose Retest to Confirm Inhibitors of Cancer Stem Cells. [Related pubchem assays (depositor defined):AID2717, AID2721]; type: functional; conditions: Homo sapiens
[4] = target: FAD-linked sulfhydryl oxidase ALR (Homo sapiens, UniProt P55789); assay: inhibitors of human ALR sulfhydryl oxidase, dose response, biochemical, H2O2 detection, luminescence, cherry-pick (AID 493248)
H4 = assay: Luminescence Cell-Based Dose Response HTS to Identify Activators of 5'UTR Stem-Loop Driven Prion Protein mRNA Translation in H4 Neuroglioblastoma Cells. [Related pubchem assays: 1829 (Project Summary), 1814 (Primary HTS)]; type: functional; conditions: Homo sapiens
[5] = target: T3, RNA-binding protein pos-1 (Caenorhabditis elegans, UniProt G5EF15); assay: inhibitors of POS-1/mex-3 RNA binding, dose response, biochemical, fluorescence polarization (AID 1964);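 also: purified POS-1 fused to maltose binding protein made in E. coli; potency of compounds blocking POS-1 binding to fluorescent RNA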
T3 sequence (G5EF15 whole entry): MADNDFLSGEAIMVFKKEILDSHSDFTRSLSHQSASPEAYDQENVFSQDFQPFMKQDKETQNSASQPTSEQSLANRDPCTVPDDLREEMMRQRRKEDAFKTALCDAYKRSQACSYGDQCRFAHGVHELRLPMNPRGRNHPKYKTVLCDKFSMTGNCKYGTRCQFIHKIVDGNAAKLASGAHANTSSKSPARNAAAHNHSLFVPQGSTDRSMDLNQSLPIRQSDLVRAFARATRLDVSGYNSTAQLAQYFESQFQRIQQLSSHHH

Sequence of Cytochrome P450 2D6 (P10635 whole entry): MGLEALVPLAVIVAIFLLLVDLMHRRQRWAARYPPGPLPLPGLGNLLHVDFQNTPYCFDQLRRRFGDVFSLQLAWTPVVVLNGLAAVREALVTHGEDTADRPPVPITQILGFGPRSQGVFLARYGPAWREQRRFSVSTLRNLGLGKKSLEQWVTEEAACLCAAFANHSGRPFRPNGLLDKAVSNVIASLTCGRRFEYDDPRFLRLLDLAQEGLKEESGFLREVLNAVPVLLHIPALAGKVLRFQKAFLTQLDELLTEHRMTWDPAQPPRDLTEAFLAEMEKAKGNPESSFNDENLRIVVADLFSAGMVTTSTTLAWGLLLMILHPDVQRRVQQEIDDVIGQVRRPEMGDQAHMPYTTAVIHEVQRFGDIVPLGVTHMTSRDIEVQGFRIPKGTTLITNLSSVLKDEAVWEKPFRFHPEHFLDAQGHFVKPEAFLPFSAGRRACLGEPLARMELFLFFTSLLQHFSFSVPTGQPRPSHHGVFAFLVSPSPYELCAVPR
Sequence of Cytochrome P450 2C19 (P33261 whole entry): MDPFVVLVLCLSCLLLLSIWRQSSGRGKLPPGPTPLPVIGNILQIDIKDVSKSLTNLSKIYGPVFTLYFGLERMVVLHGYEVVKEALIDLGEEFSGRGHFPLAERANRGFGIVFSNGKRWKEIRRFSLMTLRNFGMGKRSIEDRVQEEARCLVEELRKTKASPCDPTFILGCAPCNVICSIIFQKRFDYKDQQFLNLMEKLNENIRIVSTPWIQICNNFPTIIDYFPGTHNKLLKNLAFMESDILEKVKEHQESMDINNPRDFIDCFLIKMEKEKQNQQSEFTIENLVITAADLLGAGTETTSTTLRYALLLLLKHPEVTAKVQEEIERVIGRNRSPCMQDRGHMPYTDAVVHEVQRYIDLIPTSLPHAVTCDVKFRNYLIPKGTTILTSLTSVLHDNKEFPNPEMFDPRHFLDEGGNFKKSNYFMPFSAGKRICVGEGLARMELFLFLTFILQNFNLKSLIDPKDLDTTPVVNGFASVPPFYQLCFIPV
Sequence of FAD-linked sulfhydryl oxidase ALR (P55789 whole entry): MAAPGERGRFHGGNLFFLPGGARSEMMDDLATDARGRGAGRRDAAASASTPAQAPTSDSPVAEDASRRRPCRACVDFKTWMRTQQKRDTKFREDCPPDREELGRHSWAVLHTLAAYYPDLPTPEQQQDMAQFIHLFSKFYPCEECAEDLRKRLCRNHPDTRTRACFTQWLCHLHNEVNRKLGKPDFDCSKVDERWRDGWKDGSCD

In the case of `O=C1c2ccccc2C(=O)N1CCCCN(C(=O)c1cc([N+](=O)[O-])cc([N+](=O)[O-])c1)c1ccc(Cl)cc1`, the CC50 [1] is reported as > 50 µM (active).
With `Cc1ccc(/C=N/n2c(S)nnc2-c2cccs2)cc1` the AC50 (Cytochrome P450 2D6) was 5.01 µM (inconclusive) and the AC50 (Cytochrome P450 2C19) was 3.55 µM (inconclusive).
With `Cc1nc2cc(C(F)(F)F)ccc2n1CCNc1nc(-c2cc(Cl)c(N)c(Cl)c2)cs1` the CC50 [1] was 19.7 µM (active).
In the case of `CC(C)(C)c1ccc(CN(Cc2ccco2)Cc2nnnn2C2CCCC2)cc1`, the AC50 (Cytochrome P450 2D6) is reported as 22.4 µM (inconclusive), the EC50 (Streptokinase A) is reported as 12.7 µM (active) and the EC50 (Streptococcus) is reported as > 150 µM (not active). The EC50 [2] was 5.71 µM (active).
For `CN(C)CC/C=C1\c2ccccc2CSc2ccccc21` [DOTHIEPIN], the AC50 (Cytochrome P450 2D6) was 7.94 µM (inconclusive).
In the case of `Cc1cc(N2CCOCC2)nc2ccc(N=C(S)N3CCCCC3C)cc12` (configuration not stated), the CC50 [1] is reported as 18.2 µM (active).
For `COc1ccc(CNc2ncncc2-c2c(C)noc2C)c(OC)c1`, the AC50 (Cytochrome P450 1A2) was 25.1 µM (inconclusive).
For `CCc1nc(N2CCC(C)CC2)c2oc3ccccc3c2n1`, the AC50 [3] was 4.63 µM (active).
In the case of `CCCOC(=O)C(=O)NNc1ccccc1`, the AC50 [3] is reported as 0.95 µM (active).
In the case of `COc1cccc(NC(=O)COC(=O)c2nc3nccc(C)n3n2)c1`, the AC50 (Cytochrome P450 2D6) is reported as 22.4 µM (inconclusive), the AC50 (Cytochrome P450 2C19) is reported as 31.6 µM (inconclusive) and the AC50 (Cytochrome P450 1A2) is reported as 17.8 µM (inconclusive).
For `CC(/C=N/NC(=O)c1cccc([N+](=O)[O-])c1)=C\c1ccccc1`, the AC50 (Cytochrome P450 1A2) was 1.78 µM (inconclusive).
In the case of `Cc1cc2c(cc1S(=O)(=O)N1CCN(c3ccc(Cl)cc3)CC1)OCCN2C`, the CC50 [1] is reported as 41 µM (active).
In the case of `N=C(N)c1ccc(/N=N\c2c(O)ccc3c2[nH]c2ccccc23)cc1`, the AC50 (Cytochrome P450 2D6) is reported as 5.01 µM (inconclusive).
With `C=CCc1ccc(OCCOCCOc2cccc3ccc(C)nc23)c(OC)c1` the CC50 [1] was 29.6 µM (active).
For `COCCn1c(=O)c(-c2cccs2)nc2cnc(N3CCNCC3)nc21`, the AC50 (Cytochrome P450 2C19) was 25.1 µM (inconclusive).
For `CCCCCn1c(=O)c(C(=O)c2ccccc2)nc2ccccc21`, the AC50 (Cytochrome P450 2D6) was 28.2 µM (inconclusive).
With `CC(NC(=O)c1ccc(N2CCNCC2)c([N+](=O)[O-])c1)C12CC3CC(CC(C3)C1)C2` (configuration not stated) the AC50 [3] was 10.2 µM (active) and the CC50 [1] was 16 µM (active).
With `COc1ccc(N2CCN(C(=O)CCNC(=O)c3ccc(C(C)(C)C)cc3)CC2)cc1` the AC50 [4] was 10.1 µM (active).
In the case of `Cc1c(C(=O)N(C)C)c2cc(Cl)ccc2n1O`, the AC50 [4] is reported as 0.722 µM (active).
In the case of `CC1(C)Cc2c(sc(NC(=O)Nc3ccccc3)c2C(N)=O)CO1`, the EC50 (H4) is reported as > 120 µM (not active).
In the case of `C(=N\N=C(\Nc1ccccc1)c1ccccn1)/c1ccccn1`, the EC50 [5] is reported as > 300 µM (inconclusive).
In the case of `COc1cccc(Cn2c(=O)c(-c3cc(F)cc(F)c3)nc3cnc(N4CCNCC4)nc32)c1`, the AC50 (Cytochrome P450 2D6) is reported as 39.8 µM (inconclusive) and the AC50 (Cytochrome P450 2C19) is reported as 39.8 µM (inconclusive).
For `O=[N+]([O-])c1ccc(S(=O)(=O)Nc2cccc(-c3ccc(N4CCOCC4)nn3)c2)cc1`, the CC50 [1] was > 50 µM (active).
In the case of `C[C@@H](C(=O)Cc1ccc2ccccc2c1)[C@@H]1C[C@@]1(C)[C@@H](NP(=O)(c1ccccc1)c1ccccc1)c1ccccc1`, the AC50 (Cytochrome P450 1A2) is reported as 10 µM (inconclusive).
